Test results: patent US20150297619A1, “METHODS AND COMPOSITIONS FOR PRESERVING THE MUCOSAL BARRIER” (priority 2014, published 2015)

Experiments:
[1] = system: MMP-9 dimers, pro-MMP-2, MMP-2, MMP-1 or MMP-3; experiment: Gelatin gel zymography of pre-ischemic intestinal homogenates renatured with inhibitor: MMP bands; assay type: biochemical, rat; settings: inhibitor in renaturing and developing buffer: tranexamic acid 20 mM, doxycycline 1 mg/ml, GM-6001 1 ug/ml
Protocol: Gelatin Gel Zymography—Segments 2 and 7 from pre-ischemic intestines were homogenized (0.1 g tissue/ml homogenization buffer; PBS pH 7.4 with 0.5% hexadecyltrimethyl bromide) and centrifuged at 1.4×10^4 g for 20 minutes. Supernatants were stored at −80° C. until samples were processed. To assess the proteolytic activities of individual proteases in intestinal tissue samples, sample volumes of 1 μl (with 2 μg of protein) were separated by gel electrophoresis in SDS-PAGE gels containing 80 μg/ml gelatin. […] The molecular weights of the proteases were estimated by use of a standard protein ladder (Invitrogen). Gels were digitized and bands were analyzed by densitometry in ImageJ (rsbweb.nih.gov/ij/). […] These gels were compared to a concurrently run gel processed normally.

hemorrhagic shock = experiment: Hemorrhagic shock model with enteral pretreatment, unflushed intestine (Example 1); assay type: in vivo, rat; settings: for lesions in the jejunum (gross morphology): enteral pretreatment, HS 90 min at 30 mmHg, 3 hours observation; for rate of MAP decrease during reperfusion: last 2 hours of reperfusion, mean±SD
Protocol: Hemorrhagic Shock Model—Hemorrhagic shock (HS) was used to study the ability of treatments, shown in the ex vivo portion of the study to preserve the barrier and protect the intestine in the absence of luminal content, to prevent intestinal injury after ischemia/reperfusion injury in vivo when luminal content is present. Following general anesthesia, the femoral artery and vein were cannulated. Systolic, diastolic, heart rate, and mean arterial pressure (MAP) were recorded throughout the procedure using LabChart (AD Instruments, Dunedin, New Zealand). Rats were randomly divided into the following groups: […] No-HS animals were cannulated and immediately sacrificed for tissue collection. In the HS groups, anesthetized rats were subjected to laparotomy and the intestine was exposed, and a “Pre-HS” image was captured. […] Extra caution was applied to avoid over-inflation of the intestine. After injection, the intestine was carefully returned to the peritoneal cavity and the wound was covered with moist gauze and plastic wrap to keep the animal warm. To prevent clotting in catheters and shed blood, animals were heparinized (1 U/ml i.v., assuming 6% blood volume per body weight) prior to inducing hemorrhagic shock. […] At the end of ischemia, the shed blood was returned to the animal (0.5 ml/min). […] Gross morphology images of the intestine were captured, “Post-HS” At the end of reperfusion, segments of intestine (jejunum; 10 cm from ligament of Treitz) were snap frozen for homogenization and embedded in O.C.T. (Tissue Tek). MPO Activity—Myeloperoxidase (MPO) activity in the intestine as a measure for neutrophil accumulation was selected as an index of reperfusion injury after hemorrhagic shock. Segments from the jejunum (about at the position of segment 2 in the ex vitro study) were homogenized with their native luminal contents (PBS pH 6.0 in 0.5% HTAB). 40 μl of 2 mg/ml intestine homogenate was added to 180 μl of PBS (pH 6.0) mixed with 0.167 mg/ml o-dianisidine dihydrochloride (Sigma-Aldrich) in duplicate and 0.001% H2O2 (w/v). Absorbance was measured kinetically at 450 nm every 5 minutes for 1 hour at 37° C. As negative controls, 180 μl of PBS (pH 6.0) was added to 20 μl of sample and the absorbance values of these samples were subtracted from the measurements with the substrate. The change in absorbance was linear within this period, and MPO activity is presented as the change in absorbance per minute per milligram of protein.

[2] = system: ischemic small intestine segments (jejunum to ileum); experiment: Ex vivo intestinal ischemia: transmural fluorescein transport across wall of flushed intestinal segments; design: species or system rat
Description: Intestinal Ischemia—Since intestinal properties are non-homogenous, the transmural permeability was investigated over the entire length of the jejunum and ileum. Due to physical constraints of the small intestine anatomy, it is not feasible to simultaneously analyze permeability from multiple segments in vivo. Therefore, an ex vivo approach similar to previously published studies was designed to measure permeability along the length of the small intestine.
A midline incision was made to expose the intestine in anesthetized rats. The proximal end of the jejunum (approximately 5 cm distal from the ligament of Treitz) was cannulated with a female luer to barb tube connector (⅛″ inner diameter). The intestine was removed and placed in saline immediately before euthanasia. In order to focus the analysis on permeability of the intestinal wall during ischemia in the absence of luminal contents (including the digestive proteases or cytotoxic factors from food), the lumen of the intestine was flushed with 40 ml saline using pulsatile pressure. Visual examination confirmed all solid contents were removed. Next, the intestine was cut into eight equal length segments (˜8 cm) sequentially ordered from the proximal jejunum (position 1) to the distal ileum (position 8). Both ends of each segment were cannulated with Female Luer to Barb tube connectors (thus allowing entry and exit points from the intestinal lumen to be sealed completely), secured with 4-0 suture, and the exterior portion of one adaptor on each segment sealed with clay.
To determine the transmural permeability of the intestine, all 8 segments from each animal were filled with a low molecular weight tracer as a sensitive measure of early barrier breakdown prior to the initiation of ischemia, fluorescein (332 Da M.W., 20 μg/ml from 5 mg/ml stock in ethanol; 0.308 osm/L; Sigma-Aldrich, St. Louis, Mo.) mixed with saline, glucose (100 mg/ml in saline; 0.550 moles/L; 0.863 osm/L, Sigma-Aldrich), the non-metabolizing glucose analog mannitol (100 mg/ml in saline; 0.550 moles/L; 0.863 osm/L), the serine protease inhibitor tranexamic acid (31 mg/ml in saline; 0.200 moles/L; 0.508 osm/L, Sigma-Aldrich), the MMP inhibitor doxycycline hyclate (1 mg/ml in saline; 1.955×10^−3 moles/L; 0.310 osm/L, Sigma-Aldrich), or the MMP inhibitor GM 6001 [38] (1 μg/ml in saline from 1 mg/ml stock in DMSO; 2.57×10^−6 moles/L; 0.308 osm/L, Millipore, Billerica, Md.). […]
Sealed segments were rinsed in saline, individually placed in 15 ml conical tubes containing 6 ml saline, and incubated at 37° C. for 2 hours to simulate ischemic conditions. […] Plates were read in a plate reader (FilterMax F-5 Multi-mode, Molecular Devices, Sunnyvale, Calif.) for concentration of fluorescein (excitation 494/emission 521) to measure diffusion across the wall of the intestine.
Permeability Analysis—To determine the fluorescein transport across the ischemic intestinal wall, the fluorescence at time 0 was subtracted from fluorescence values at later time points to correct for background, and fluorescence values were corrected to account for the volume reduction due to sampling during the experiment. The RFU measurements were converted to equivalent moles by using the linear relationship between concentration and fluorescein fluorescence (not shown, R^2=0.999). The transport of fluorescein across the wall (measured in moles, per time) was computed as the change in fluorescence over a 30 min interval divided by 30 min.

## NC[C@H]1CC[C@H](C(=O)O)CC1 [tranexamic acid]
[1]
  MMP gelatinase activity bands (220 kDa MMP-9 dimers, pro-MMP-2, MMP-2, 50 kDa band): significantly reduce
Hemorrhagic shock
  lesions in the jejunum (gross morphology): had lesions form in the jejunum
  rate of MAP decrease during reperfusion: −0.27±0.16 mmHg/min
[2]; ex vivo ischemia, inhibitor in lumen without glucose, vs saline
  fluorescein transport rates, 30-60 min and 60-90 min periods: significantly decreased compared to the saline treated intestines

## O=C[C@H](O)[C@@H](O)[C@H](O)[C@H](O)CO [Glucose, glucose]
Hemorrhagic shock
  lesions in the jejunum (gross morphology): had lesions form in the jejunum
  rate of MAP decrease during reperfusion: −0.21±0.13 mmHg/min
[2]; ex vivo, treatment in lumen, two-hour ischemic period
  fluorescein transport across the wall of the intestine: drastically reduced
